Data from patent US10753935B2, “Prognostic method and kits useful in said method” (Zelda Therapeutics Operations Pty Ltd, priority 2016, dated 2020).

Tests used:
HER2 [1] = assay: Western blot of HER2 in HCC1954 cells; type: cell-based, human; settings: THC treatment
Procedure: FIG. 5. Protein expression in HCC1954 cells. Protein expression analysis by Western blot of total and phosphorylated (i.e., activated) HER2 in response to THC.
(§1) We have now confirmed this observation by Western blot in HCC1954 cells (FIG. 5).
HCC1954 cells were treated with RIPA buffer (50 mM Tris, 150 mM NaCl, 1% NP-40, 0.5% sodium deoxycholate, and 0.1% sodium dodecyl sulfate), containing a cocktail of protease inhibitors (pepstatin, leupeptin, aprotinin, quimostatin, antipain, and phenylmethylsulfonyl fluoride) and phosphatase inhibitors (Na3VO4 and NaF; Sigma Chemical Co., St. Louis, Mo.). Proteins separated by sodium dodecyl sulfate-10% polyacrylamide reducing gels were transferred to polyvinylidene difluoride membranes (Bio-Rad Laboratories, Hercules, Calif.). After blocking with 5% skim milk and 1% bovine serum albumin, membranes were incubated with the anti-ErbB2 antiserum (Santa Cruz Biotechnology, Santa Cruz, Calif.) diluted 1:500 for 3 h at room temperature. […] A chemiluminescence detection system (Amersham Pharmacia Biotech, Piscataway, N.J.) was used to reveal peroxidase. Controls were carried out with an anti-actin monoclonal antibody (MAb; Boehringer Mannheim, Indianapolis, Ind.) diluted 1:5,000 followed by an anti-mouse IgG peroxidase-labeled antibody diluted 1:4,000 (Zymed).

HER2-CB2 heteromers [2] = biological target: T1, HER2-CB2 heteromers (Homo sapiens, UniProt P34972); assay: PLA and BRET assays of HER2-CB2 heteromers in BT474 cells; type: cell-based; settings: THC at concentrations that produce anti-tumor responses, previously reported by the applicants
T1 sequence (P34972 whole entry, one chain of several): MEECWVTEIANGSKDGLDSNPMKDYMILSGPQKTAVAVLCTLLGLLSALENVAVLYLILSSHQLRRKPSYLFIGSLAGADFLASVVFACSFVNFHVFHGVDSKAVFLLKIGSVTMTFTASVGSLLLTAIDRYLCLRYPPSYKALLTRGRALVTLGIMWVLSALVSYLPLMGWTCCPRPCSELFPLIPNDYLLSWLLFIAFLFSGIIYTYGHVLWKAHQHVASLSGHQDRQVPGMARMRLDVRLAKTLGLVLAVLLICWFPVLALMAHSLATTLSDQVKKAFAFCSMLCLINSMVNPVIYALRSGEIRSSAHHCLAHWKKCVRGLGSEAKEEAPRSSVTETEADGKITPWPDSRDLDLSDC
Procedure: (§2) As discussed in Example 1, we observed these effects using Proximity Ligation assays (PLAs) and Bioluminescence Resonance Energy Transfer (BRET) assays.
(§3) Cells were grown on glass coverslips and fixed in 4% paraformaldehyde, washed with PBS containing 20 mM glycine, permeabilized with the same buffer containing 0.05% Triton® X-100, and washed successively with PBS. HER2-CB2R heteromers were detected using the Duolink in situ Probemarker kit (Olink, Bioscience, Uppsala, Sweden). After 1 h of incubation at 37° C. with the blocking solution in a preheated humidity chamber, cells were incubated overnight in the antibody dilution medium with a mixture of equal amounts of rabbit anti-CB2 antibody (1:50, Cayman Chemical, Ann Arbor, Mich.) directly linked to a plus PLA probe, and rabbit anti-HER2 antibody (1:50, Santa Cruz Biotechnology, Santa Cruz, Calif., US) directly linked to a minus PLA probe. […] Amplification was done with the Duolink II detection reagents red kit, which contains fluorescence nucleotides. […] PLA requires that both receptors be close enough to allow the two different antibody-DNA probes to be able to ligate (<17 nm) ((Soderberg et al., (2008), Methods., 45: 227-232; Trifilieff et al., (2011), BioTechniques, 51: 111-118). If the receptors are within sufficient proximity, a punctate fluorescent signal can be detected by confocal microscopy.

HER2-CB2 heteromers [3] = biological target: T1, HER2-CB2 heteromers; assay: Co-immunoprecipitation of HER2 and CB2-HA in HCC1954 cells; type: cell-based; parameters: HER2-CB2 heteromer expression in HCC1954 cells; endogenous in cells; host or cells: HCC1954; settings: HCC1954 cells transfected with CB2-HA; 3 μM THC for 4 h
Procedure: (§4) FIG. 3. Western blot analysis of HER2 and CB2 in the indicated cell lines. Cells were transfected with a CB2-HA encoding plasmid and treated with THC for 4 h. HER2 was then immune-precipitated with an anti-HER2 antibody, and blots were developed with anti-HA antibodies.
(§5) HCC1954 and BT474 cells were transiently transfected with pcDNA3-HA-hCB2 or the corresponding empty vector (pcDNA3), using Fugene HD Transfection Reagent (Promega, Madison, Wis.). 48 h after transfection, cells were treated with 3 μM THC or the corresponding vehicle (DMSO) for 4 h, and lysed using a specific buffer for co-immunoprecipitation (40 mM Hepes pH 7.5, 120 mM NaCl, 1 mM EDTA, 10 mM sodium pyrophosphate, 10 mM sodium glycerophosphate, 50 mM sodium fluoride, 0.5 mM sodium orthovanadate, 0.3% CHAPS and supplemented with 1 mM benzamidine and 0.1 mM PMSF in fresh). Cell lysates (1 mg) were immunoprecipitated using 5 μg of anti-ErbB2 antibody (Neu C-18, Santa Cruz Biotechnology, Santa Cruz, Calif., US) covalently coupled to 5 μL protein G-sepharose. After immunoprecipitation, proteins were separated by SDS-10% polyacrylamide reducing gels and transferred to PVDF membranes. […] Bound antibodies were detected with a donkey anti-rabbit immunoglobulin G (IgG) peroxidase-labeled antibody (GE Healthcare, UK). […]

HER2 [4] = assay: HER2 degradation in BT474 cells; type: cell-based, human; settings: THC treatment, previously observed
Source text: as §2, §1

HER2-CB2 heteromers [5] = biological target: T1, HER2-CB2 heteromers; assay: In situ proximity ligation assay of HER2-CB2 heteromers in HCC1954 cells; type: cell-based; parameters: HER2-CB2 heteromer expression in HCC1954 cells; endogenous in cells; host or cells: HCC1954; settings: THC treatment
Procedure: HER2-CB2 heteromer expression in HCC1954 cells. Representative images of the PLA experiments, in response to the indicated treatments.
Cells were grown on glass coverslips and fixed in 4% paraformaldehyde, washed with PBS containing 20 mM glycine, permeabilized with the same buffer containing 0.05% Triton® X-100, and washed successively with PBS. HER2-CB2R heteromers were detected using the Duolink in situ Probemarker kit (Olink, Bioscience, Uppsala, Sweden). After 1 h of incubation at 37° C. with the blocking solution in a preheated humidity chamber, cells were incubated overnight in the antibody dilution medium with a mixture of equal amounts of rabbit anti-CB2 antibody (1:50, Cayman Chemical, Ann Arbor, Mich.) directly linked to a plus PLA probe, and rabbit anti-HER2 antibody (1:50, Santa Cruz Biotechnology, Santa Cruz, Calif., US) directly linked to a minus PLA probe. Cells were washed with wash buffer A at room temperature and incubated in a preheated humidity chamber for 30 min at 37° C. with the ligation solution (Duolink® II ligation stock, 1:5, and Duolink II ligase, 1:40) to induce annealing and ligation of the two DNA probes. Amplification was done with the Duolink II detection reagents red kit, which contains fluorescence nucleotides. After exhaustive washing at room temperature with wash buffer B, cells were mounted using mounting medium with DAPI. […]

HER2-CB2 heteromers [6] = biological target: T1, HER2-CB2 heteromers; assay: Co-immunoprecipitation of HER2 and CB2-HA in BT474 cells; type: cell-based; settings: BT474 cells transfected with CB2-HA; 3 μM THC for 4 h
Procedure: as §4, §5

HER2-HER2 dimers = assay: In situ proximity ligation assay of HER2-HER2 dimers in HCC1954 cells; type: cell-based, human; settings: THC treatment
Procedure: FIG. 6. HER2-HER2 dimer expression in HCC1954 cells. Representative images of the PLA experiments, in response to the indicated treatments.
as §3

Structure (SMILES): CCCCCc1cc(O)c2c(c1)OC(C)(C)[C@@H]1CCC(C)=C[C@@H]21 [THC, Δ^9-tetrahydrocannabinol]
- effect on HER2 protein level (Western blot) (HER2 [1]): degradation of HER2
- effect on HER2-CB2 heteromers (PLA, BRET) (HER2-CB2 heteromers [2]): disrupts HER2-CB2 heteromers
- effect on HER2-CB2 heteromers (co-IP) (HER2-CB2 heteromers [3]): disrupts HER2-CB2 heteromers
- effect on HER2 protein level (HER2 [4]): degradation of HER2
- effect on HER2-CB2 heteromers (PLA) (HER2-CB2 heteromers [5]): breaks the heteromers by acting on CB2
- effect on HER2-CB2 heteromers (co-IP) (HER2-CB2 heteromers [6]): disrupts HER2-CB2 heteromers
- effect on HER2-HER2 dimers (PLA) (HER2-HER2 dimers): disrupts not only HER2-CB2 but also HER2-HER2 dimers
